Reference: article PMC5784920, “Inhibition of α-glucosidase, α-amylase, and aldose reductase by potato polyphenolic compounds” (PLoS ONE, 2018)

What was measured:
[1] = system: T1, α-glucosidase; experiment: p-nitrophenol release at […] nm, Lineweaver-Burk; format: biochemical; conditions: pH 6.5 phosphate; no inhibitor
T1 construct: gene MAL12; introduction speaks of intestinal enzyme

[2] = system: O=C[C@H](O)CO; experiment: purified protein; conditions: NADPH cofactor; no inhibitor; varied substrate taken as glyceraldehyde (D/L not told)

Km [1] [mM] | Molecule | Km [2] [mM]
4.44 | O=[N+]([O-])c1ccc(O[C@H]2O[C@H](CO)[C@@H](O)[C@H](O)[C@H]2O)cc1 [PNPG] | –
– | aldose reductase (AR) (Homo sapiens) | 3.03
